# Assay results as given in publication PMC7933434, “Entropy-driven binding of gut bacterial β-glucuronidase inhibitors ameliorates irinotecan-induced toxicity” (Communications Biology, 2021).
# “And” between values parts separate entries of the source, which are not always exact repeats. Equal values may be shown once. Read-outs that look alike come from different tables or passages of the source.
# Experiments:
# [1] = molecular target: LgGUS (Lactobacillus gasseri GUS) (Lactobacillus gasseri, UniProt Q9AHJ8); assay: GUS inhibition assay, hydrolysis of 4-methylumbelliferyl-β-glucuronide, LgGUS; assay type: biochemical; parameters: GUS activity (hydrolysis rate of MUG) / 1/v: unit not given here; conditions: for Ki: LgGUS
# Sequence of LgGUS (Lactobacillus gasseri GUS) (Q9AHJ8 1-598): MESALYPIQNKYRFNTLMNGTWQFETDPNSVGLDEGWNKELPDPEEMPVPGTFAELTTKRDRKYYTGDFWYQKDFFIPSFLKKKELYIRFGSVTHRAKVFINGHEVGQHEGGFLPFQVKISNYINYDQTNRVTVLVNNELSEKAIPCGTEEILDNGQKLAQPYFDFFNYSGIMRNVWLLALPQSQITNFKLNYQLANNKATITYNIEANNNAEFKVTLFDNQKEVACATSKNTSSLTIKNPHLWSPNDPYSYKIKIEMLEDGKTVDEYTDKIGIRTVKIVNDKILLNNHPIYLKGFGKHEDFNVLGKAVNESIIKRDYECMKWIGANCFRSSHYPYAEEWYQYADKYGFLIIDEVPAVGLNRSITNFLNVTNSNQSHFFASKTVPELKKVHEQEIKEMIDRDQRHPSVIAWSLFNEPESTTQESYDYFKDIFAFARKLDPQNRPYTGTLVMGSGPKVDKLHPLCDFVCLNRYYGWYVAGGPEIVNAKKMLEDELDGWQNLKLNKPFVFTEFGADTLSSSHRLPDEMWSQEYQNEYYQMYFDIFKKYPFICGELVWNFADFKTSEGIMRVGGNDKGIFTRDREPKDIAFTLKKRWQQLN
# [2] = molecular target: T1, GUS activity in live E. coli cells (Escherichia coli, UniProt P05804); assay: GUS activity in live E. coli cells; assay type: cell-based; conditions: E. coli cells (OD600 = 1.89) treated for 30 min, then GUS activity measured
# T1 construct: endogenous in cells
# T1 sequence (P05804 whole entry): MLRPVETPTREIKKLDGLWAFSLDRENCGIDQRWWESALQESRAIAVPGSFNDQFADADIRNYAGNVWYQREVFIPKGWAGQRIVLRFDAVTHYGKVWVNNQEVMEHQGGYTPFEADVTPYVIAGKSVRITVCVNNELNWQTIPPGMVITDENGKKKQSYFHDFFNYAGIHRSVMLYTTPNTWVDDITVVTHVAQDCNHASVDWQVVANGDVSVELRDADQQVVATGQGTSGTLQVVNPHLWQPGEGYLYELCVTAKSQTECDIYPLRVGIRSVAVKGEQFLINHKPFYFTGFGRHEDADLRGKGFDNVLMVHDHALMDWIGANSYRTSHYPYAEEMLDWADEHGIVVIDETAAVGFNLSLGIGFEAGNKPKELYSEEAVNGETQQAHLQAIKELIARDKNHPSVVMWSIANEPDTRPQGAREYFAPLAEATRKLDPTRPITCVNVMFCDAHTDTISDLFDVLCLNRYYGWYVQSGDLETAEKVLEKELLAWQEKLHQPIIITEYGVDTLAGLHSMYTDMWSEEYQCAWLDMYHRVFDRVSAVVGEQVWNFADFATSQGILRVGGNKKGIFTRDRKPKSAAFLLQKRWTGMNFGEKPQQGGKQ
# Experimental: To examine if inhibitors 2–4 could inhibit GUS activity in vivo, E. coli cells (OD600 = 1.89) were treated with each of 2–4 for 30 min, after which GUS activity was measured. […]; 3, 18.6 nM; and 4, 3.69 nM (Supplementary Fig. 9a). […]. […] Additionally, to evaluate cell viability, E. coli cultures were treated with ampicillin (positive control), DMSO, or inhibitors 2–4 (100 μM) for 6 h.
# Supplementary Figure 9 Inhibitors 2–4 sho w in hi biti on ag ai n st G US acti vity in l i ve E. co li cell s. (a) GUS activity was measured in live E. coli. Af t e r E. coli were incubated with DMSO or an inhibitor ( 2–4), GUS activity was measured using 4-methylumbelliferyl-β-glucuronide as the substrate. The release of fluorescent 4-methylumbelliferone was detected at 445 nm (excitation, 345 nm). Compared with the negative c ont rol (DMSO ), […]
# […]. (b) Colony formation assay. None of the inhibitors affected bacterial growth. As a negative control, E. coli cells were incubated with ampicillin (100 μg/mL). Results are expressed as the mean of triplicate samples ± SEM.
# (1 picture or pasted object on this page, not shown here)
# EcGUS = EcGUS (Escherichia coli, UniProt P05804); assay: Isothermal titration calorimetry, EcGUS; assay type: binding; conditions: EcGUS
# Sequence of EcGUS (P05804 whole entry): as above
# [3] = molecular target: BdGUS (Bifidobacterium dentium GUS) (Bifidobacterium dentium, UniProt D2Q7B1); assay: biochemical; parameters: GUS activity (hydrolysis rate of MUG) / 1/v: unit not given here
# Sequence of BdGUS (Bifidobacterium dentium GUS) (D2Q7B1 1-668): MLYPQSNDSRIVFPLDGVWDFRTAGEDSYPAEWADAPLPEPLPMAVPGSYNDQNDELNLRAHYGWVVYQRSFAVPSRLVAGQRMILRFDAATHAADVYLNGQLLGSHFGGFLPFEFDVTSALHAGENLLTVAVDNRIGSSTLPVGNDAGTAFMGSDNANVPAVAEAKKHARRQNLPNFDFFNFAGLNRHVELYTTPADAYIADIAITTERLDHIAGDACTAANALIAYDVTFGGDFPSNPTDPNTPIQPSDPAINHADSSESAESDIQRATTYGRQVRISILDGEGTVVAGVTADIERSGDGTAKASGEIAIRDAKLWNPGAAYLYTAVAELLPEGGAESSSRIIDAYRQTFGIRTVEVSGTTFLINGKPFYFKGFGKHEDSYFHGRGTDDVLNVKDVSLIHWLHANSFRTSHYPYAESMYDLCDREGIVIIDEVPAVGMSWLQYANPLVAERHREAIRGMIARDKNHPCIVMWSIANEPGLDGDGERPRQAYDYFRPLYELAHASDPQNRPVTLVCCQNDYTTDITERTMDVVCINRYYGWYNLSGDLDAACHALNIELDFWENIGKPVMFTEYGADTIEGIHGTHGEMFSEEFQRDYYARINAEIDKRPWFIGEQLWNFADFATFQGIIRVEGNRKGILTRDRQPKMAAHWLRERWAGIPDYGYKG
# [4] = molecular target: EcGUS (Escherichia coli GUS) (Escherichia coli, UniProt P05804); assay: biochemical
# Sequence of EcGUS (Escherichia coli GUS) (P05804 whole entry): as the sequence (P05804 whole entry) above
# [5] = [Inhibitor 4] = 0.1 μM, [MUG] 0.0375 mM
# [6] = [Inhibitor 4] = 0.1 μM, [MUG] 0.05 mM
# [7] = [Inhibitor 4] = 0.1 μM, [MUG] 0.075 mM
# [8] = [Inhibitor 4] = 0.1 μM, [MUG] 0.15 mM
# [9] = [Inhibitor 4] = 0.2 μM, [MUG] 0.0375 mM
# [10] = [Inhibitor 4] = 0.2 μM, [MUG] 0.05 mM
# [11] = [Inhibitor 4] = 0.2 μM, [MUG] 0.075 mM
# [12] = [Inhibitor 4] = 0.2 μM, [MUG] 0.15 mM
# [13] = [Inhibitor 4] = 0.4 μM, [MUG] 0.0375 mM
# [14] = [Inhibitor 4] = 0.4 μM, [MUG] 0.05 mM
# [15] = [Inhibitor 4] = 0.4 μM, [MUG] 0.075 mM
# [16] = [Inhibitor 4] = 0.4 μM, [MUG] 0.15 mM
# [17] = [Inhibitor 4] = 0.6 μM, [MUG] 0.0375 mM
# [18] = [Inhibitor 4] = 0.6 μM, [MUG] 0.05 mM
# [19] = [Inhibitor 4] = 0.6 μM, [MUG] 0.075 mM
# [20] = [Inhibitor 4] = 0.6 μM, [MUG] 0.15 mM
# [21] = phosphate buffer (250 mM NaCl, 20 mM KH2PO4, 100 mM Na2HPO4, pH 8.0), 298 K
# [22] = [Inhibitor 4] = 0.05 μM, [MUG] 0.08 mM
# [23] = [Inhibitor 4] = 0.05 μM, [MUG] 0.125 mM
# [24] = [Inhibitor 4] = 0.05 μM, [MUG] 0.25 mM
# [25] = [Inhibitor 4] = 0.05 μM, [MUG] 0.5 mM
# [26] = [Inhibitor 4] = 0.15 μM, [MUG] 0.08 mM
# [27] = [Inhibitor 4] = 0.15 μM, [MUG] 0.125 mM
# [28] = [Inhibitor 4] = 0.15 μM, [MUG] 0.25 mM
# [29] = [Inhibitor 4] = 0.15 μM, [MUG] 0.5 mM
# [30] = [Inhibitor 4] = 0.3 μM, [MUG] 0.08 mM
# [31] = [Inhibitor 4] = 0.3 μM, [MUG] 0.125 mM
# [32] = [Inhibitor 4] = 0.3 μM, [MUG] 0.25 mM
# [33] = [Inhibitor 4] = 0.3 μM, [MUG] 0.5 mM
# [34] = [Inhibitor 4] = 0.6 μM, [MUG] 0.08 mM
# [35] = [Inhibitor 4] = 0.6 μM, [MUG] 0.125 mM
# [36] = [Inhibitor 4] = 0.6 μM, [MUG] 0.25 mM
# [37] = [Inhibitor 4] = 0.6 μM, [MUG] 0.5 mM
compound,measurement,setting,value
"CCCCCCCCC[C@@H]1NC[C@@H](O)[C@H](O)[C@H]1C(=O)O [Inhibitor 4, C6-nonyl UIFG]",Ki,[1],270 nM
same,Ki,"[1]; 50 mM sodium acetate pH 4.5, 37 °C",270 ± 74 nM
same,1/v,[1]; [5],0.07099 and 0.06547 and 0.07752
same,GUS activity (hydrolysis rate of MUG),[1]; [5],17345 and 18805 and 15888
same,1/v,[1]; [6],0.08248 and 0.08036 and 0.08633
same,GUS activity (hydrolysis rate of MUG),[1]; [6],14936 and 15328 and 14270
same,1/v,[1]; [7],0.1044 and 0.09961 and 0.1132
same,GUS activity (hydrolysis rate of MUG),[1]; [7],11804 and 12374 and 10895
same,1/v,[1]; [8],0.1278 and 0.1207 and 0.1294
same,GUS activity (hydrolysis rate of MUG),[1]; [8],9649 and 10216 and 9535
same,1/v,[1]; [9],0.05896 and 0.0562 and 0.06114
same,GUS activity (hydrolysis rate of MUG),[1]; [9],20877 and 21902 and 20134
same,1/v,[1]; [10],0.07315 and 0.0639 and 0.07306
same,GUS activity (hydrolysis rate of MUG),[1]; [10],16834 and 19266 and 16856
same,1/v,[1]; [11],0.08853 and 0.08384 and 0.0916
same,GUS activity (hydrolysis rate of MUG),[1]; [11],13918 and 14693 and 13452
same,1/v,[1]; [12],0.113 and 0.1097 and 0.1193
same,GUS activity (hydrolysis rate of MUG),[1]; [12],10909 and 11240 and 10335
same,1/v,[1]; [13],0.04482 and 0.03964 and 0.04854
same,GUS activity (hydrolysis rate of MUG),[1]; [13],27452 and 31030 and 25348
same,1/v,[1]; [14],0.06247 and 0.0466 and 0.0623
same,GUS activity (hydrolysis rate of MUG),[1]; [14],19707 and 26401 and 19760
same,1/v,[1]; [15],0.07433 and 0.06177 and 0.07489
same,GUS activity (hydrolysis rate of MUG),[1]; [15],16569 and 19929 and 16445
same,1/v,[1]; [16],0.09796 and 0.08796 and 0.1041
same,GUS activity (hydrolysis rate of MUG),[1]; [16],12581 and 14006 and 11837
same,1/v,[1]; [17],0.03481 and 0.03381 and 0.03972
same,GUS activity (hydrolysis rate of MUG),[1]; [17],35328 and 36376 and 30969
same,1/v,[1]; [18],0.04379 and 0.03975 and 0.04826
same,GUS activity (hydrolysis rate of MUG),[1]; [18],28094 and 30946 and 25494
same,1/v,[1]; [19],0.05918 and 0.05295 and 0.06497
same,GUS activity (hydrolysis rate of MUG),[1]; [19],20799 and 23242 and 18949
same,1/v,[1]; [20],0.08688 and 0.08016 and 0.09205
same,GUS activity (hydrolysis rate of MUG),[1]; [20],14180 and 15366 and 13387
same,IC50,[2],3.69 nM
same,ΔH,"EcGUS; Tris buffer (250 mM NaCl, 20 mM Tris, pH 8.0), 298 K",close to zero
same,"ΔΔH relative to 2 (ΔΔH2–3, ΔΔH2–4)",EcGUS; phosphate buffer,+0.99 kcal mol^−1
same,"–TΔΔS relative to 2 (–TΔΔS2–3, –TΔΔS2–4)",EcGUS; phosphate buffer,-1.34 kcal/mol
same,Kd,EcGUS; [21],160 ± 40 nM
same,ΔG,EcGUS; [21],–9.30 ± 0.13 kcal/mol
same,ΔH,EcGUS; [21],–3.00 ± 0.02 kcal/mol
same,—TΔS,EcGUS; [21],–6.31 ± 0.15 kcal/mol
same,Ki,[3]; BdGUS,440 nM
same,1/v,[3]; [22],0.1206 and 0.1178 and 0.1199
same,GUS activity (hydrolysis rate of MUG),[3]; [22],1.851 and 1.896 and 1.862
same,1/v,[3]; [23],0.09548 and 0.09298 and 0.09392
same,GUS activity (hydrolysis rate of MUG),[3]; [23],2.339 and 2.4016 and 2.377
same,1/v,[3]; [24],0.06502 and 0.06335 and 0.06665
same,GUS activity (hydrolysis rate of MUG),[3]; [24],3.434 and 3.525 and 3.35
same,1/v,[3]; [25],0.04786 and 0.04662 and 0.0491
same,GUS activity (hydrolysis rate of MUG),[3]; [25],4.665 and 4.79 and 4.548
same,1/v,[3]; [26],0.1451 and 0.1465 and 0.1466
same,GUS activity (hydrolysis rate of MUG),[3]; [26],1.539 and 1.524 and 1.523
same,1/v,[3]; [27],0.1144 and 0.1135 and 0.113
same,GUS activity (hydrolysis rate of MUG),[3]; [27],1.951 and 1.968 and 1.976
same,1/v,[3]; [28],0.07405 and 0.07448 and 0.0755
same,GUS activity (hydrolysis rate of MUG),[3]; [28],3.015 and 2.998 and 2.957
same,1/v,[3]; [29],0.05196 and 0.05207 and 0.05497
same,GUS activity (hydrolysis rate of MUG),[3]; [29],4.298 and 4.288 and 4.062
same,1/v,[3]; [30],0.2039 and 0.1961 and 0.2029
same,GUS activity (hydrolysis rate of MUG),[3]; [30],1.095 and 1.138 and 1.1007
same,1/v,[3]; [31],0.1529 and 0.1514 and 0.1472
same,GUS activity (hydrolysis rate of MUG),[3]; [31],1.4607 and 1.475 and 1.517
same,1/v,[3]; [32],0.09524 and 0.09338 and 0.09505
same,GUS activity (hydrolysis rate of MUG),[3]; [32],2.344 and 2.391 and 2.349
same,1/v,[3]; [33],0.06409 and 0.06318 and 0.06381
same,GUS activity (hydrolysis rate of MUG),[3]; [33],3.484 and 3.534 and 3.499
same,1/v,[3]; [34],0.286 and 0.2822 and 0.2849
same,GUS activity (hydrolysis rate of MUG),[3]; [34],0.7809 and 0.7911 and 0.7837
same,1/v,[3]; [35],0.2142 and 0.2187 and 0.2123
same,GUS activity (hydrolysis rate of MUG),[3]; [35],1.043 and 1.021 and 1.052
same,1/v,[3]; [36],0.1255 and 0.1264 and 0.1244
same,GUS activity (hydrolysis rate of MUG),[3]; [36],1.779 and 1.767 and 1.7944
same,1/v,[3]; [37],0.08292 and 0.0812 and 0.08265
same,GUS activity (hydrolysis rate of MUG),[3]; [37],2.693 and 2.75 and 2.702
same,Ki,[4],4.5 nM
same,Ki,"[4]; 50 mM HEPES pH 7.5, 37 °C",4.5 ± 0.7 nM
